Test results from ChEMBL document CHEMBL1149199 (Bioorg Med Chem Lett, 2004).

Assays:
[1] = target: T1, Sodium-dependent serotonin transporter (Homo sapiens, UniProt P31645)
Description: Ability to inhibit [3H]paroxetine binding to cloned human serotonin (5-HT) transporter

[2] = target: T2, Sodium-dependent noradrenaline transporter (Homo sapiens, UniProt P23975)
[3] = target: T3, Sodium-dependent dopamine transporter (Homo sapiens, UniProt Q01959); experiment: Ability to inhibit [3H]mazindol binding to cloned human dopamine (DA) transporter
[4] = target: T3, Sodium-dependent dopamine transporter
Description: Ability to inhibit [3H]mazindol binding to cloned human dopamine (DA) transporter; Average of two experiments

[5] = target: T2, Sodium-dependent noradrenaline transporter; experiment: Ability to inhibit [3H]nisoxetine binding to cloned human norepinephrine (NE) transporter; Average of two experiments
[6] = target: T1, Sodium-dependent serotonin transporter; remark: listed apart in the source
Description: Ability to inhibit [3H]paroxetine binding to cloned human serotonin (5-HT) transporter; Average of two experiments

T1 sequence (P31645 whole entry): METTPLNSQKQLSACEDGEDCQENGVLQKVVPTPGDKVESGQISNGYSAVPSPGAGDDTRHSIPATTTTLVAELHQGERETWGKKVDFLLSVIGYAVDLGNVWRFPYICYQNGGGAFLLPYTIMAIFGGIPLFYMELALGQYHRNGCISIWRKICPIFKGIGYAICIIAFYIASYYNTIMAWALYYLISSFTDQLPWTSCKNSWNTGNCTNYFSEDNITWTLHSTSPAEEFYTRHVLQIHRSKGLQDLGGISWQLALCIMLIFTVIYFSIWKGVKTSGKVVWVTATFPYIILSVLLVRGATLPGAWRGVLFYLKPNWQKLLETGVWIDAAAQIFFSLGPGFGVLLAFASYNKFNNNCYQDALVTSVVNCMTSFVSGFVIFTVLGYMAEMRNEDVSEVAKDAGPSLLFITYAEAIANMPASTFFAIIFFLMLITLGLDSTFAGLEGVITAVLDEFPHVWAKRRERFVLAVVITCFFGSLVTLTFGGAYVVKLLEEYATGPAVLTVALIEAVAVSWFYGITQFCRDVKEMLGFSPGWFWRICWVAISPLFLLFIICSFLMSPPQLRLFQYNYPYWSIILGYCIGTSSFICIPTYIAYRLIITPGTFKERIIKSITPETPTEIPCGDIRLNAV
T2 sequence (P23975 whole entry): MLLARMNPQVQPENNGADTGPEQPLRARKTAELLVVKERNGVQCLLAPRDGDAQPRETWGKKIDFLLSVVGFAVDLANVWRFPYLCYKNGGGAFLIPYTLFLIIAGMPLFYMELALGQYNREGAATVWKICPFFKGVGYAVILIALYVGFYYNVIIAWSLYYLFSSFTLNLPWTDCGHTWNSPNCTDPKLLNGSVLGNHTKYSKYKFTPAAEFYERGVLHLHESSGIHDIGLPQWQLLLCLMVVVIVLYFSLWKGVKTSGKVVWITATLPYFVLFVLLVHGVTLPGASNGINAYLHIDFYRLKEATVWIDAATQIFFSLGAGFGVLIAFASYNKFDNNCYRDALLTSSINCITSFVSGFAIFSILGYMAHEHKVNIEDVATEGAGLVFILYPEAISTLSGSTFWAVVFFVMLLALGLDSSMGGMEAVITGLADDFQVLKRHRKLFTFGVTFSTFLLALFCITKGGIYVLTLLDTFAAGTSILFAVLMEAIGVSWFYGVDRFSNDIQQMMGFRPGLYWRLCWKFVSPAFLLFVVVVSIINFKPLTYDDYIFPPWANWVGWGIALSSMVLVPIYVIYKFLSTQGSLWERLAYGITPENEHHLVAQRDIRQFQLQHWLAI
T3 sequence (Q01959 whole entry): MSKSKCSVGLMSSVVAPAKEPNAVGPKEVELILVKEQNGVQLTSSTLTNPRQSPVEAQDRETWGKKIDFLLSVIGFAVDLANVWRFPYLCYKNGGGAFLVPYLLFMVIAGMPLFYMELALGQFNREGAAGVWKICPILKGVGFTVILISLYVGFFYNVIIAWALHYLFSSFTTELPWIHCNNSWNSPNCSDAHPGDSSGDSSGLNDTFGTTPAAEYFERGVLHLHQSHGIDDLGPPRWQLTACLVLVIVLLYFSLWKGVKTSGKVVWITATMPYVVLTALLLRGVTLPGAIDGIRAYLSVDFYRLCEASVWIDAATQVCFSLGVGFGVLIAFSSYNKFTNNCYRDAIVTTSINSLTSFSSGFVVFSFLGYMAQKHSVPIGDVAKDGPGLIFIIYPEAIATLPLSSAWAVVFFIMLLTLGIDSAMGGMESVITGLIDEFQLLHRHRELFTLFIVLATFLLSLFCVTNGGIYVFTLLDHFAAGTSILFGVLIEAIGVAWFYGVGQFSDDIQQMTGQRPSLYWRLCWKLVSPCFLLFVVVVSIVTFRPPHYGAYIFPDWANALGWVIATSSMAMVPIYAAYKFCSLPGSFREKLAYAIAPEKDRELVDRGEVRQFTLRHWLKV

Ki [1] [nM] | Ki [2] [nM] | Ki [3] [nM] | Ki [4] [nM] | Ki [5] [nM] | Ki [6] [nM] | Structure (SMILES)
266 | 920 | 2810 | – | – | – | CNCC[C@H](Oc1cccc2c(O)c(OC)ccc12)c1cccs1
1460 | 5450 | > 10000 | – | – | – | CNCC[C@H](Oc1cccc2cc(O[C@@H]3O[C@H](C(=O)O)[C@@H](O)[C@H](O)[C@H]3O)ccc12)c1cccs1
> 10000 | > 10000 | 3510 | – | – | – | CNCC[C@H](Oc1ccc(O[C@@H]2O[C@H](C(=O)O)[C@@H](O)[C@H](O)[C@H]2O)c2ccccc12)c1cccs1
– | – | – | 241 | 18.4 | 9.6 | CNCC[C@H](Oc1cccc2c(O)cccc12)c1cccs1
– | – | – | 353 | 235 | 3.66 | CNCC[C@H](Oc1cccc2c(OC)c(O)ccc12)c1cccs1
– | – | – | 130 | 97.1 | 63.9 | CNCC[C@H](Oc1ccc(O)c2ccccc12)c1cccs1
– | – | – | 163 | 4.72 | 1.06 | CNCC[C@H](Oc1cccc2cc(O)ccc12)c1cccs1
3120 | > 10000 | > 10000 | – | – | – | CNCC[C@H](Oc1cccc2c(OS(=O)(=O)O)c(OC)ccc12)c1cccs1
31.7 | 554 | > 10000 | – | – | – | CNCC[C@H](Oc1cccc2c(O)c(O)ccc12)c1cccs1 (stereo in doubt; form 1)
120 | 695 | 7270 | – | – | – | CNCC[C@H](Oc1cccc2c(O)c(O)ccc12)c1cccs1 (stereo in doubt; form 2)

Structure (SMILES) | Ki [1] [nM] | Ki [2] [nM] | Ki [3] [nM] | Ki [4] [nM] | Ki [5] [nM] | Ki [6] [nM]
CNCC[C@H](Oc1cccc2c(O[C@@H]3O[C@H](C(=O)O)[C@@H](O)[C@H](O)[C@H]3O)c(O[C@@H]3O[C@H](C(=O)O)[C@@H](O)[C@H](O)[C@H]3O)ccc12)c1cccs1 | > 10000 | > 10000 | > 10000 | – | – | –
CNCC[C@H](Oc1cccc2c(O[C@@H]3O[C@H](C(=O)O)[C@@H](O)[C@H](O)[C@H]3O)c(OC)ccc12)c1cccs1 | > 10000 | > 10000 | > 10000 | – | – | –
